{"source": "patent US10273461B2", "about": "“Employing human adipose-derived stem cells to propagate serum-derived hepatitis C virus and use thereof” (FRONTIER BIO-DRUG DEVELOPMENT LIMITED, priority 2015, dated 2019)"}
{"tested_on": "HCVser-1b", "experiment": "Drug inhibition assay in HCVser-infected hADSC", "type": "cell-based, hepatitis C virus", "conditions": "p4-5 hADSC, graded concentrations, 21 days' cell lysates, qRT-PCR, IFNα as 16 h pretreatment"}
{"compound": "NC(=O)c1ncn([C@@H]2O[C@H](CO)[C@@H](O)[C@H]2O)n1", "note": "[ribavirin]", "HCV replication (viral 5'-UTR transcripts, fraction inhibition vs vehicle control)": "inhibited in a dose-responsive manner"}
{"compound": "IFNα", "HCV replication (viral 5'-UTR transcripts, fraction inhibition vs vehicle control)": "inhibited in a dose-responsive manner"}
{"compound": "cyclosporine A", "HCV replication (viral 5'-UTR transcripts, fraction inhibition vs vehicle control)": "inhibited in a dose-responsive manner"}
